{"source": "patent US6803374B2", "about": "“Compounds useful for treating hepatitis C virus” (priority 2001, dated 2004)"}
{"target": "T1, HCV NS5B RdRp genotype 1b (Hepatitis C virus genotype 1b, UniProt Q9WMX2)", "T1 construct": "The protein was expressed with an 18 amino acid C-terminal truncation to enhance the solubility; made in house; host or cells: E. coli BL21(DE3)", "T1 sequence (Q9WMX2 2420-2992)": "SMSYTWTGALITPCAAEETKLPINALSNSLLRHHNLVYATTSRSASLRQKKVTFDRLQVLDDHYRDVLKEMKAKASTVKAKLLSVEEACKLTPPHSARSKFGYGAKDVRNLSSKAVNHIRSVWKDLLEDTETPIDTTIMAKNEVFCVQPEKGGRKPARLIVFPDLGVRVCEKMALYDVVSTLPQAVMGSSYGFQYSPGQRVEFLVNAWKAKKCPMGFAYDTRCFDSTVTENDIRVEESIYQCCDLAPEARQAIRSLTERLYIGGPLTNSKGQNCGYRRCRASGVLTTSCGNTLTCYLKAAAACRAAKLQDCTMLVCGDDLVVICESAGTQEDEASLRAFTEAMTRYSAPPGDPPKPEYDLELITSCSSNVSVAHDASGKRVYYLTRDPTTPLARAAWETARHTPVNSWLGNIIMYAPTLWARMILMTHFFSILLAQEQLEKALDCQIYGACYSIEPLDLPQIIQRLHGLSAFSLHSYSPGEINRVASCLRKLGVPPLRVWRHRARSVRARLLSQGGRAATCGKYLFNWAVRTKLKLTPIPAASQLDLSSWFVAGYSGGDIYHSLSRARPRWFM", "test": "HCV NS5B RdRp enzyme assay", "assay_type": "biochemical", "conditions": "IC50, HCV RdRp genotype 1b enzyme, C-terminal 18 aa truncated; average of single point IC50 values", "protocol": "HCV NS5B RdRp cloning, expression and purification. The cDNA encoding the NS5B protein of HCV, genotype 1b, was cloned into the pET21a expression vector. The protein was expressed with an 18 amino acid C-terminal truncation to enhance the solubility. The E. coli competent cell line BL21(DE3) was used for expression of the protein. Cultures were grown at 37° C. for ˜4 hours until the cultures reached an optical density of 2.0 at 600 nm. The cultures were cooled to 20° C. and induced with 1 mM IPTG. Fresh ampicillin was added to a final concentration of 50 ug/ml and the cells were grown overnight at 20° C.\nCell pellets (3L) were lysed for purification to yield 15-24 mgs of purified NS5B. The lysis buffer consisted of 20 mM Tris-HCl, pH 7.4, 500 mM NaCl, 0.5% triton X-100, 1 mM DTT, 1 mM EDTA, 20% glycerol, 0.5 mg/ml lysozyme, 10 mM MgCl2, 15 ug/ml deoxyribonuclease I, and Complete TM protease inhibitor tablets (Roche). After addition of the lysis buffer, frozen cell pellets were resuspended using a tissue homogenizer. To reduce the viscosity of the sample, aliquots of the lysate were sonicated on ice using a microtip attached to a Branson sonicator. The sonicated lysate was centrifuged at 100,000×g for 1 hr at 4° C. and filtered through a 0.2 μm filter unit (Corning).\nThe protein was purified using three sequential chromatography steps: Heparin sepharose CL-6B, polyU sepharose 4B, and Hitrap SP sepharose (Pharmacia). The chromatography buffers were identical to the lysis buffer but contained no lysozyme, deoxyribonuclease I, MgCl2 or protease inhibitor and the NaCl concentration of the buffer was adjusted according to the requirements for charging the protein onto the column. Each column was eluted with a NaCl gradient which varied in length from 5-50 column volumes depending on the column type. After the final chromatography step, the resulting purity of the enzyme is >90% based on SDS-PAGE analysis. The enzyme was aliquoted and stored at −80° C.\nHCV NS5B RdRp enzyme assay. HCV RdRp genotype 1b assays were run in assay buffer composed of 20 mM Tris-HCl, pH 7.5, 2.5 mM KCl, 5 mM MgCl2, 1 mM DTT, 1.6 U RNAse inhibitor (Promega N2515), in 96 well plates (Falcon 3918). All compounds were serially diluted in DMSO and diluted further in assay buffer such that the final concentration of DMSO in the assay was 2%. Compounds were serially diluted (3-fold each time) for a 7 point inhibition analysis. HCV RdRp genotype 1b enzyme was used at a final concentration of 28 nM. A polyA template was used at 28 nM, and the oligo-dT12-18 primer was used at 840 nM final concentration. Preannealed primer and template were obtained commercially (Amersham 27-787802). ^3H-UTP was used at 0.125 μCi (1 μM total UTP). Reaction was initiated by the addition of enzyme. Reactions were incubated at 30° C. for 45 min, and stopped by adding 30 ul of 20% ice cold TCA. Plates were chilled for 30 minutes and harvested onto Unifilter-96, GF/B plates (Packard, 6005177) using a Packard FilterMate Cell Harvester. The harvest plates were prewashed 3 times, 200 ul/well, with 100 mM NaPPi. Harvested filters were washed 30 times, 200 ul/well, with distilled water followed by ethanol. Filter plates were dried, and 30 ul/well microscint-20 was added. Plates were read on a Packard Top Count NXT.\nThe IC50 values for compounds were determined using […] different [I], combined with 7 nM enzyme, 800 ng of the template-primer polyC/oligoG12 (1:5 molar ratio), and 0.7 uM of ^3H GTP containing 1 uCi. The observed fractional activity (fa=vi/vo) was used in the equation IC50=[I]/(1/fa-1) to determine a single point IC50 value. Typically, the single point IC50 values derived from [I] that produced fractional activities in the range of 0.1 to 0.8 relative to the uninhibited control were averaged to calculate the IC50 value for each compound.", "units": {"IC50": "nM"}}
{"smiles": "CC(=O)c1ccc(-c2ccc(C(=O)O)cc2COc2ccc(-c3nc4cc(-c5nnn[nH]5)ccc4n3C3CCCCC3)cc2)s1", "note": "[Example 120]", "IC50": 20}
{"smiles": "O=C(O)c1ccc(-c2ccc3[nH]ccc3c2)c(COc2ccc(-c3nc4cc(-c5nnn[nH]5)ccc4n3C3CCCCC3)cc2)c1", "note": "[Example 121]", "IC50": 30}
{"smiles": "O=Cc1ccoc1-c1ccc(C(=O)O)cc1COc1ccc(-c2nc3cc(-c4nnn[nH]4)ccc3n2C2CCCCC2)cc1", "note": "[Example 122]", "IC50": 670}
{"smiles": "O=C(O)c1ccc(-c2cccc3cccnc23)c(COc2ccc(-c3nc4cc(-c5nnn[nH]5)ccc4n3C3CCCCC3)cc2)c1", "note": "[Example 123]", "IC50": 440}
{"smiles": "O=C(NC(Cc1ccc(O)cc1)C(=O)O)c1ccc(-c2ccsc2)c(COc2ccc(-c3nc4cc(-c5nnn[nH]5)ccc4n3C3CCCCC3)cc2)c1", "note": "(centres unmarked) [Example 129]", "IC50": 290}
{"smiles": "NC(=O)CCNC(=O)c1ccc(-c2ccsc2)c(COc2ccc(-c3nc4cc(-c5nnn[nH]5)ccc4n3C3CCCCC3)cc2)c1", "note": "[Example 131]", "IC50": 230}
{"smiles": "CN1CCN(C(=O)c2ccc(-c3ccsc3)c(COc3ccc(-c4nc5cc(-c6nnn[nH]6)ccc5n4C4CCCCC4)cc3)c2)CC1", "note": "[Example 132]", "IC50": 830}
{"smiles": "O=C(c1ccc(-c2ccsc2)c(COc2ccc(-c3nc4cc(-c5nnn[nH]5)ccc4n3C3CCCCC3)cc2)c1)N1CCOCC1", "note": "[Example 133]", "IC50": 1100}
{"smiles": "O=C(c1ccc(-c2ccsc2)c(COc2ccc(-c3nc4cc(-c5nnn[nH]5)ccc4n3C3CCCCC3)cc2)c1)N1CCCC1", "note": "[Example 134]", "IC50": 370}
{"smiles": "O=C(NCCCO)c1ccc(-c2ccsc2)c(COc2ccc(-c3nc4cc(-c5nnn[nH]5)ccc4n3C3CCCCC3)cc2)c1", "note": "[Example 135]", "IC50": 700}
{"smiles": "CNC(=O)c1ccc(-c2ccsc2)c(COc2ccc(-c3nc4cc(-c5nnn[nH]5)ccc4n3C3CCCCC3)cc2)c1", "note": "[Example 136]", "IC50": 220}
{"smiles": "O=C(c1ccc(-c2ccsc2)c(COc2ccc(-c3nc4cc(-c5nnn[nH]5)ccc4n3C3CCCCC3)cc2)c1)N1CCC(O)CC1", "note": "[Example 137]", "IC50": 1300}
{"smiles": "O=C(c1ccc(-c2ccsc2)c(COc2ccc(-c3nc4cc(-c5nnn[nH]5)ccc4n3C3CCCCC3)cc2)c1)N(CCO)CCO", "note": "[Example 138]", "IC50": 3000}
{"smiles": "CC(C)(C)OC(=O)C(Cc1ccc(O)cc1)NC(=O)c1ccc(-c2ccsc2)c(COc2ccc(-c3nc4cc(-c5nnn[nH]5)ccc4n3C3CCCCC3)cc2)c1", "note": "(centres unmarked) [Example 140]", "IC50": 2150}
{"smiles": "CC(C)(C)OC(=O)CNC(=O)c1ccc(-c2ccsc2)c(COc2ccc(-c3nc4cc(-c5nnn[nH]5)ccc4n3C3CCCCC3)cc2)c1", "note": "[Example 141]", "IC50": 2800}
{"smiles": "O=C(O)CNC(=O)c1ccc(-c2ccsc2)c(COc2ccc(-c3nc4cc(-c5nnn[nH]5)ccc4n3C3CCCCC3)cc2)c1", "note": "[Example 143]", "IC50": 80}
{"smiles": "N#Cc1ccc(-c2ccc(C(=O)N3CCC(O)CC3)cc2COc2ccc(-c3nc4cc(-c5nnn[nH]5)ccc4n3C3CCCCC3)cc2)cc1", "note": "[Example 149]", "IC50": 220}
{"smiles": "CN(C)C(=O)c1ccc(-c2ccc3[nH]cc(C(=O)C(F)(F)F)c3c2)c(COc2ccc(-c3nc4cc(-c5nnn[nH]5)ccc4n3C3CCCCC3)cc2)c1", "note": "[Example 152]", "IC50": 420}
{"smiles": "O=C(O)CNC(=O)c1ccc(-c2ccc3[nH]cc(C(=O)C(F)(F)F)c3c2)c(COc2ccc(-c3nc4cc(-c5nnn[nH]5)ccc4n3C3CCCCC3)cc2)c1", "note": "[Example 153]", "IC50": 260}
{"smiles": "NC(=O)CCNC(=O)c1ccc(-c2ccc3[nH]cc(C(=O)C(F)(F)F)c3c2)c(COc2ccc(-c3nc4cc(-c5nnn[nH]5)ccc4n3C3CCCCC3)cc2)c1", "note": "[Example 155]", "IC50": 270}
